Laboratory results: patent publication US20080300303A1, “Substances and Pharmaceutical Compositions for the Inhibition of Glyoxalases and Their Use As Anti-Fungal Agents” (priority 2005, published 2008)
Counter-ions that a name gives are not always drawn.

What was measured:
[1] = tested on: primary human skin fibroblasts; experiment: Vitality of primary human fibroblasts (dye exclusion count); type: cell-based; conditions: 1-50 mM, 24 hours, serum free medium, FIG. 7
Method: An identical number (10^4 cells per well) of primary human skin fibroblasts were inoculated in 24-well plates (Greiner, no. 662160) and were cultured in DMEM (Gibco; no. 41966-092) in the presence of 10% calf serum (Biochrom, S0113/5), 2 mM L-glutamine (Gibco; no. 25030-024), penicillin/streptomycin (100 units penicillin/ml; 100 μg streptomycin/ml, Gibco; no. 15140/122), 5 mg % ascorbic acid (Serva, no. 14030.02) at 37° C., 5% CO2 and 95% humidity. The primary human fibroblasts were prepared according to the instructions of Birkenmeier et al. (1998). After reaching 50% confluency the medium was by fresh serum free medium. Thereafter the following supplements were added to the cells: preparation 1 (equivalent volume of serum free (SF) medium, blank); preparation 2 (1 mM DEL or 1 mM LEL or 1 mM EP); preparation 3 (5 mM DEL or 5 mM LEL or 5 mM EP), preparation 4 (10 mM DEL or 10 mM LEL or 10 mM EP), preparation 5 (20 mM DEL or 20 mM LEL or 20 mM EP), preparation 6 (50 mM DEL or 50 mM LEL or 50 mM EP). The culture was continued at 37° C., 5% CO2 and 95% humidity for 24 hours. Thereafter the supernatants were removed and 100 μl of a 50% […] solution was added to the wells. After washing the cells with medium the unstained and stained cells were counted under the light optical microscope comprising a coordinate plane. Cells stained blue were assessed as avital, unstained cells as vital. The percentage of unstained cells of the total number of cells corresponds to the vitality of the cells.

yeast glyoxalase I = target: T1, yeast glyoxalase I (Saccharomyces cerevisiae, UniProt P50107); experiment: Enzymatic activity of yeast glyoxalase I; type: biochemical; conditions: for Inhibition of the reaction of yeast glyoxalase I: increasing concentrations (FIG. 1-3; 0-30 mM in FIG. 3)
T1 construct: purchased Sigma G-4252
T1 sequence (P50107 1-326): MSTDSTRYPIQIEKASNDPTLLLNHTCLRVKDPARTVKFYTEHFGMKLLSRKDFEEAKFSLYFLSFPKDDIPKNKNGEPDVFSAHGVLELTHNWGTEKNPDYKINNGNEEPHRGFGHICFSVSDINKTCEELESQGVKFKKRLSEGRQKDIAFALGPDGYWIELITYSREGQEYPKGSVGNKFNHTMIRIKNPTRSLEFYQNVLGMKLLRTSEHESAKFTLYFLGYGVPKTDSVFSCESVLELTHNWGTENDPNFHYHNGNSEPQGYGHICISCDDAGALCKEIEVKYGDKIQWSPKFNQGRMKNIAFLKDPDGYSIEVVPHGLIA
Method: Measuring glyoxalase I (E.C.4.4.1.5, lactoyl-glutathione lyase Sigma, G-4252) was performed according to the instructions of McLellan and Thornalley (1989). The principle is based on measuring the initial rate of formation of S-D-lactoyl-glutathione from methylglyoxal (Sigma, M0252, 40%) and reduced L-glutathione (Aldrich, G-4251, >99%). The formation of the product is observed using the extinction coefficient e=2.86 mM−1 cm−1 at 240 nm. The measurement was performed in 50 mM sodium phosphate buffer, pH 7.0. For that purpose 2 mM methylglyoxal and 2 mM reduced glutathione were incubated for 2 minutes at 30° C. for the formation of the hemithioacetal. Thereafter 20 μl of a 1 to 1000 dilution of the glyoxalase I (Sigma, G-4252) was added to 1 ml of the measuring reagent to start the reaction.
Glyoxalase activity (IU) corresponds to the amount of enzyme forming 1 μmol of S-D-lactoyl-glutathione/min.
Determination of glyoxalase I activity was performed according to the general protocol as described above. The influence of ethyl pyruvate on enzyme activity was investigated by addition of increasing concentrations of EP (Sigma; no. E4,780-8; lot. S18972-513) to the measuring reagent.
Determination of glyoxalase I activity was performed according to the general protocol as described above. The influence of compounds of the general formula (I), (II), and (III) on the activity of the enzyme was investigated by addition of increasing concentrations of these compounds to the preparation. The IC50-values were calculated from inhibition curves of each compound.
Determination of glyoxalase I activity . . . was performed according to the general protocol as described above. The influence of 2-oxopropanethioic acid S-ethyl ester on the activity of the enzyme was investigated by addition of increasing concentrations of SE to the preparation for the measurement.
Determination of glyoxalase I activity was performed according to the general protocol as described above. The influence of effectors on the enzymatic activity was investigated by addition of increasing concentrations (0-30 mM) of EP (Sigma; no. E4,780-8; lot. S18972-513) (triangle), BP (prepared according to the instructions of patent JP 11080089; 98%) (circle) and BL (Fluka, 69819; lot. 443090/1 21503090) (squares) to the measuring reagent (FIG. 3).

[2] = tested on: Saccharomyces cerevisiae HD65-5a; experiment: Growth of yeast cells, O.D. at 600 nm; conditions: increasing concentrations, (FIG. 8, Table 5)
[3] = tested on: fluconazole resistant Candida albicans strain A435 5; experiment: Growth of fluconazole resistant Candida albicans, O.D. at 600 nm; type: cell-based
Method: A colony of the fluconazole resistant Candida albicans strain A435 5 was cultured in the same medium and under the same conditions as used for Saccharomyces HD65-5a.
At an O.D. of 14.4 (600 nm) a starting density of O.D. 0.20 was set by dilution with culture medium.
(§1) Samples of 1 ml were taken after 5 hours and the O.D. at 600 nm was determined as a standard for the cell number. The resistance against fluconazole was determined according to the guidelines of NCCLS (1997). Resistance is defined as growth at a dosage of a ≧64 μg/ml of fluconazole.

[4] = tested on: fluconazole sensitive Candida albicans strain R/HO13; experiment: Growth of fluconazole sensitive Candida albicans, O.D. at 600 nm; type: cell-based
yeast glyoxalase II = experiment: Enzymatic activity of yeast glyoxalase II (cell free extract); type: biochemical, Saccharomyces cerevisiae; conditions: 0-20 mM, FIG. 4
Method: Protein concentration of the cell free extract was determined according to the Bradford method (Bradford, 1976).
The activity of the glyoxalase II (Hydroxyacyl glutathione hydrolase, E.C. 3.1.2.6.) was determined according to the instructions of Martins et al. (1999) in 0.1 M MES buffer, pH 6.5, 1.5 mM S-D-lactoyl-glutathione (L7140, Sigma-Aldrich Chemistry GmbH) and 0.75 mM DTNB (Sigma, D8130). After addition of suitable amounts of cell extract and an incubation period of 15 min at 25° C. the formation of glutathione was measured at 412 nm (ε=13.6 mM^−1 cm^−1). The activity of the glyoxalase II (IU) correlates with the amount of enzyme hydrolysing 1 μmol of S-D-lactoyl-glutathion/min.
The influence of ethyl pyruvate on the activity of the enzyme was investigated by adding increasing concentrations of EP (Sigma, No. E4,780-8; Lot. S18972-513) (0-20 mM) to the measurement reagent.

[5] = target: T2, glyoxalase I of human erythrocytes (Homo sapiens, UniProt Q04760); experiment: Enzymatic activity of human erythrocyte glyoxalase I; type: biochemical; conditions: 0-50 mM, FIG. 5
T2 construct: from tissue; host or cells: human erythrocyte lysate
T2 sequence (Q04760 2-184 limits assumed): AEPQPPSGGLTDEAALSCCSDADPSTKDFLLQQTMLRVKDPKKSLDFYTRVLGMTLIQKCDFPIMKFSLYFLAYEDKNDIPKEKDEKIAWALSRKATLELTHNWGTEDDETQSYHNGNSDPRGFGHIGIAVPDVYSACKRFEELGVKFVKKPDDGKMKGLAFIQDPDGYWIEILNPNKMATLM
Method: The determination of glyoxalase I was performed as described above for the yeast enzyme. After the formation of the hemithioacetal, suitable amounts (5 to 100 μl) of an erythrocyte lysate were added to 1 ml of the measuring reagent to start the reaction. The erythrocyte lysate was prepared according to the instructions of Mannervik et al. (1982).
Glyoxalase activity (IU) corresponds to the amount of enzyme forming […] of S-D-lactoyl-glutathione/min.
Determination of glyoxalase I activity was performed according to the general protocol as described above. The influence of ethyl pyruvate on enzyme activity was investigated by addition of increasing concentrations of EP (Sigma; no. E4,780-8; lot. S18972-513) (0-50 mM) to the measuring reagent.

[6] = target: T3, glyoxalase II of human erythrocytes (Homo sapiens, UniProt Q16775); experiment: Enzymatic activity of human erythrocyte glyoxalase II; type: biochemical; conditions: 0-20 mM, FIG. 6
T3 construct: from tissue; host or cells: human erythrocyte hemolysate
Method: The determination of erythrocyte glyoxalase II (E.C.3.1.2.6., hydroxyacyl glutathione hydrolase) was performed according to the instructions of McLellan and Thornalley (1989). The principle is based on determining the initial hydrolysis of S-D-lactoyl-glutathione (L 7140, Sigma—Aldrich Chemie GmbH) in the presence of low amounts of a cell extract. Hydrolysis is observed on the basis of the reduction of the extinction at 240 nm (e=−3.1 mM−1 cm−1). Glyoxalase II activity (IU) correlates to the amount of enzyme hydrolysing 1 μmol of S-D-lactoyl-glutathione/min. The measurement was performed in 100 mM Tris-HCl buffer, pH 7.4. For this purpose 0.4 mM S-D-lactoyl-glutathione was added to 1 ml of the measuring reagent and the reaction was started by addition of suitable amounts (5-100 μl) of an erythrocyte hemolysate. The erythrocyte lysate was prepared according to the instructions of Mannervik et al. (1982).
Determination of glyoxalase II activity was performed according to the general protocol as described above. The influence of ethyl pyruvate on the activity of the enzyme was investigated by addition of increasing concentrations of EP (Sigma, no. E 4,780-8; lot. S18972-513) (0-20 mM) to the measuring reagent.

[7] = tested on: Candida albicans, Candida krusei, Candida tropicalis, Candida glabrata, Candida parapsilosis; experiment: Agar dilution antimicrobial susceptibility test; type: cell-based, Candida spp.; conditions: 12.5 mM to 40 mM in agar, 37° C., 20 hours, FIG. 9
Method: Control agar plates were prepared without EP.

Candida albicans [8] = experiment: Mouth lavage in a patient suffering from candidiasis; type: in vivo; conditions: lavage 10 ml 75 mM ethyl pyruvate, 1% glucose in saline, 3 times daily over 4 days
Method: A patient with a diagnosis of diabetes mellitus (presenting with a fasting blood sugar level of 6.88 mM) complained about dryness in the mouth, chapped lips and white blotchy alterations of the oral mucosa.

Candida albicans [9] = experiment: Fluconazole susceptibility according to NCCLS guidelines; type: cell-based
Method: as §1
The strain was sensitive against fluconazole at a dosage of ≦0.13 μg/ml.

Row | Inhibition of the reaction of yeast glyoxalase I (yeast glyoxalase I) | SMILES | Toxicity / vitality of primary human fibroblasts [1] | IC50 (yeast glyoxalase I) [mM] | Inhibition of growth of fluconazole resistant Candida albicans cells [3] | also measured
1 |  | CCOC(=O)[C@@H](C)O [(+)-Ethyl D-Lactate] | not toxic |  |  | 
2 | does not influence | CCCCOC(=O)[C@H](C)O [(−)-Butyl L-Lactate] |  |  |  | 
3 |  | CCOC(=O)[C@H](C)O [(−)-Ethyl L-Lactate] | not toxic |  |  | Inhibition of growth of yeast cells [2]: did not influence growth
4 |  | CCOC(=O)C(=O)OCC [Diethyl oxalate, reference compound] |  | > 50 |  | 
5 |  | CCOC(=O)C(=O)CC [Ethyl 2-oxobutyrate] |  | 1.8 | inhibit | 
6 |  | CCOC(=O)C(C)=O [Ethyl pyruvate] | not toxic | 10 | inhibit | Inhibition of the reaction of yeast glyoxalase I (yeast glyoxalase I; listed as EP): inhibit; Inhibition of the reaction of yeast glyoxalase II (yeast glyoxalase II): inhibits; Inhibition of the reaction of glyoxalase I of human erythrocytes [5]: inhibits; Inhibition of the reaction of glyoxalase II of human erythrocytes [6]: inhibits; Inhibition of growth of fluconazole sensitive Candida albicans cells [4]: inhibit; Inhibition of growth and proliferation of different fungi (1-7) [7]: effectively inhibits; Reduction of germ number in lavage of the oral cavity (Candida albicans [8]): < 5%; Inhibition of growth of yeast cells ([2]; listed as EP): inhibit
7 |  | COC(=O)C(C)=O [Methyl pyruvate] |  | 15 |  | 
8 | inhibits | CCSC(=O)C(C)=O [SE, 2-Oxopropanethioic acid S-ethyl ester] |  |  |  | 
9 |  | OC(Cn1cncn1)(Cn1cncn1)c1ccc(F)cc1F [fluconazole] |  |  |  | Fluconazole dosage at which growth defines resistance (Candida albicans [9]; strain A435 5, NCCLS (1997)): ≥ 64 µg/mL; Fluconazole dosage at which the strain was sensitive (Candida albicans [9]; strain R/HO13): ≤ 0.13 µg/mL

Row | SMILES | Inhibition of the reaction of yeast glyoxalase I (yeast glyoxalase I) | Toxicity / vitality of primary human fibroblasts [1] | IC50 (yeast glyoxalase I) [mM] | Inhibition of growth of fluconazole resistant Candida albicans cells [3] | also measured
10 | CCCCOC(=O)C(C)=O [Butyl pyruvate] | inhibit |  | 7.5 | inhibit | Inhibition of growth of fluconazole sensitive Candida albicans cells [4]: inhibit; Inhibition of growth of yeast cells [2]: inhibit
